In patent publication US6767917B1, “Amorphous torasemide modification” (Pliva d.d., priority 2000, dated 2004):

Legend:
[1] = Release of the active substance in water (USP 24); assay type: physicochemical; settings: for Released torasemide: water, USP 24, 37° C., 50 rpm, 1000 ml
Description: The amorphous torasemide modification as such is suitable for the preparation of pharmaceutical prepartions having short-term or prolonged actions. The amorphous torasemide modification prepared according to Example 1 of the present invention was subjected to the test of the release of the active substance in water at a temperature of 37° C. (USP 24) and the results are represented in Table 1. [table]

[2] = Solid-state stability of the amorphous modification (conversion into crystal modifications); assay type: physicochemical; settings: normal storage conditions, at crushing and compressing

Release profile in comparison with the known crystal torasemide modifications ([1]; in water (USP 24), same medium): slower release
Released torasemide ([1]; time 0 minutes): 0%
Released torasemide ([1]; time 15 minutes): 6.8%
Released torasemide ([1]; time 30 minutes): 10.2%
Released torasemide ([1]; time 45 minutes): 13.0%
Released torasemide ([1]; time 60 minutes): 15.9%
Released torasemide ([1]; time 90 minutes): 20.4%
Released torasemide ([1]; time 120 minutes): 24.9%
Stability (no conversion into crystal modification I, II or III) [2]: stable
SMILES: Cc1cccc(Nc2ccncc2S(=O)(=O)NC(=O)NC(C)C)c1 [amorphous torasemide modification, N-(1-methylethylaminocarbonyl)-4-(3-methyl-phenylamino)-3-pyridinesulfonamide]
